Tests used:
Sprague Dawley rats [1] = assay: Injection site reactions (gross ISR incidence, lesion area) after intradermal injection of zoledronic acid with or without rHuPH20; type: in vivo, rat; conditions: for AUC (accumulated ISR area over 6 days) / Peak lesion area: rat ID 0.1 mL, rHuPH20 0 U/mL
Method: A rodent model of local injection site injury caused by ZA injection was employed for the study. […] Injection into the dermis facilitates external visualization and assessment of the irritant.
(§1) Nine to ten week old female Sprague Dawley rats, having approximate body weight of 200-250 grams, were employed for the study. One day prior to injection, rats were shaved and hair on the back and flank area were removed by Nair® cream (exposure less than 1 min to depilation cream) followed by deep wash with warm tap water. On the day of dosing, all rats were injected intradermally in flank area (one or two injection spots per side), with 0.1 or 0.2 mL as indicated of zoledronic acid solution, with or without rHuPH20, at each corresponding concentration as shown in study design table. Injection site appearance was observed and quantified by blind assessment each day following the injection until the end of the study, at which time animals were sacrificed and the skin around the dosing area as well as a part of the skin that was not effected by the dosing were collected and fixed in 10% neutral buffered formalin (NBF) and further embedded in paraffin, 5 μm sections were cut for H&E stain and histopathology evaluation.
Lesion area was calculated by the following formula: W×L×¼π. Quantitative results were analyzed using one-way analysis of variance (ANOVA) method, followed by Dunnett's comparison method (Prizm 4 program). The probability values of less than 0.05 (two-tailed) were used as the critical level of significance for all tests. Groups with a sample size of two were excluded from analysis. If the sample size was 2 for the control group, there were no statistical analyses at that interval for any of the groups. Histopathologic findings were characterized by semi-quantitative analysis of necrosis and infiltration in the skin tissue. The incidences of each finding were compared with control groups by Chi-square test.
Prior to ZA intradermal injection, rats were randomized by body weight into 7 groups of 1 or 2 rats per group (Table 2). Rats were injected with either 0.1 mL or 0.2 mL of each corresponding concentration intradermally at two separate locations on each shaved flank side for a total of 4 injections for each animal. Injection sites were observed daily post-injection for four days. Pictures of injection site reaction (ISR) area were captured by digital camera and lesion area was scored for induration, erythema, or ulceration. Two perpendicular diameters (width & length) of injection site lesion were measured by microcaliper. The lesion area was defined as the area bounded by the outer edge of the erythemic zone. Upon completion of the study, the animals were euthanized and skin at the injection site and from an untreated area of the back of the rat were excised, mounted flat onto a piece of cardboard, and placed in 10% NBF.
A series of experiments were conducted in which various dosing concentrations of rHuPH20 were tested for the ability to reduce acute injection site lesions. Prior to ZA intra-dermal injection, rats were randomized by body weight into 11 groups of 2 rats per group. Rats were injected intradermally with 0.1 mL of each co-formulated solution as shown in Table 5 and observed daily with ISR development assessed as in Section B. Four days after injection, rats were sacrificed and the skin at the injection site as well as untreated skin from the back was excised, mounted flat onto a piece of cardboard, and placed in 10% NBF.
Prior to ZA intra-dermal injection, rats were randomized by body weight into 6 groups of 3 rats per group (Table 6). Rats were intradermally injected with 0.1 mL of each corresponding co-formulated solution at two separate locations, two on each shaved flank side, for a total of 4 injections for each animal. Injection sites were observed daily with ISR development assessed as in Section B for 6 days. […]

Sprague Dawley rats [2] = assay: Semi-quantitative histopathology of skin at injection site after ID zoledronic acid with or without rHuPH20; type: in vivo; set-up: key: —: Dash indicates no incidence of indicated finding; conditions: rat ID, 4 days
Method: as §1
Lesion area was calculated by the following formula: W×L×¼π. Quantitative results were analyzed using one-way analysis of variance (ANOVA) method, followed by Dunnett's comparison method (Prizm 4 program). […] Histopathologic findings were characterized by semi-quantitative analysis of necrosis and infiltration in the skin tissue. […]

Sprague Dawley rats [3] = assay: Injection site reaction recovery study (10 days) after ID ZA with or without rHuPH20; type: in vivo, rat
Method: Sprague Dawley rats were randomized to three groups of 4 rats each. ZA (0.1 ml at 0.1 mg/mL), either alone or supplemented with either 130 U/mL or 100,000 U/mL rHuPH20, was given via intradermal injection. Injection sites were observed and measured daily. Animals were sacrificed at 10 days post-injection and skin from lesion areas were dissected, fixed in 10% buffered formalin, embedded in paraffin and stained with H&E.

O=P(O)(O)C(O)(Cn1ccnc1)P(=O)(O)O [ZA, 1-hydroxy-2-(1H-imidazol-1-yl)ethylidene-1,1-bisphosphonic acid]
AUC (accumulated ISR area over 6 days) (Sprague Dawley rats [1]; ZA 0.05 mg/mL): 110.8 ± 5.6 mm^2 · day
Peak lesion area (Sprague Dawley rats [1]; ZA 0.05 mg/mL): 28.8 ± 1.8 mm^2
AUC (accumulated ISR area over 6 days) (Sprague Dawley rats [1]; ZA 0.1 mg/mL): 108.3 ± 6.9 mm^2 · day
Peak lesion area (Sprague Dawley rats [1]; ZA 0.1 mg/mL): 32.3 ± 2.7 mm^2
AUC (accumulated ISR area over 6 days) (Sprague Dawley rats [1]; ZA 0.4 mg/mL): 226.5 ± 9.1 mm^2 · day
Peak lesion area (Sprague Dawley rats [1]; ZA 0.4 mg/mL): 62.9 ± 5.1 mm^2
erythema area (Sprague Dawley rats [1]; rat ID, ZA alone 0.05-0.2 mg/ml): ~35 mm^2
Necrosis: Superficial dermis (Sprague Dawley rats [2]; ZA alone 0.05 mg/mL): —
Necrosis: Superficial dermis (Sprague Dawley rats [2]; ZA alone 0.1 mg/mL): —
time to peak lesion area (Sprague Dawley rats [3]; rat ID 0.1 ml, ZA 0.1 mg/mL alone or with 130 or 100,000 U/mL rHuPH20): 3 days
histopathologic findings (Sprague Dawley rats [3]; rat ID, ZA 0.1 mg/mL alone, 10 days post-injection): scabbing, epidermal necrosis, infiltration, vessel dilation and hemorrhage

Source: patent publication US20090311237A1, “Combination therapy using a soluble hyaluronidase and a bisphosphonate” (priority 2008, published 2009)
